Experiments:
[1] = molecular target: T1, Calf uterine cytosolic estrogen receptor (Bos taurus, UniProt P49884); assay: Estrogen Receptor assay, competition with 6,7-3H2-estradiol; format: binding
T1 construct: Calf uterine cytosolic estrogen receptor; from tissue; host or cells: calf uterus, cytosol
T1 sequence (P49884 1-596): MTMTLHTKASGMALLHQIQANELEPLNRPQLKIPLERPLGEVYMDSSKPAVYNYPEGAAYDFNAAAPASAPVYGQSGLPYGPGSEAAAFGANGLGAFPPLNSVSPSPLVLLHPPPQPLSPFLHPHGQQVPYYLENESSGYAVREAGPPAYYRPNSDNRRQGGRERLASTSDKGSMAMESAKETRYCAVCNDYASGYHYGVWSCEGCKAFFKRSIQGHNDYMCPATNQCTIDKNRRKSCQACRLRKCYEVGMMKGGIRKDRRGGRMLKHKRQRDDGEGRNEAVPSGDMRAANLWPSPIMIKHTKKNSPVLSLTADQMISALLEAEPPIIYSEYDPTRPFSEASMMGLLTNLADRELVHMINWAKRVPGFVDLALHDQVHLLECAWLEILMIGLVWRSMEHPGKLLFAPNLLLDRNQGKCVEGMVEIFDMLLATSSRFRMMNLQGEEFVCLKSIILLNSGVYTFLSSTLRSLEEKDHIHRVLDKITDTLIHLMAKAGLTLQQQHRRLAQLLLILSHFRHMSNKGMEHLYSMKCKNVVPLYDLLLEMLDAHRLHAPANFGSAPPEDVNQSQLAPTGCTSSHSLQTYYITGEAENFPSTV

[2] = system: infantile female white swiss mouse; assay: Uterotropic Assay compared to estrone as standard; format: in vivo
estrogen receptors = settings: as described for the prior art; cited from earlier work
[3] = as described for the prior art; cited from earlier work

Row | Substance | estrophilic activity relative to estradiol-17β 3-carboranylmethyl ether ([1]; compared with value reported in Steroids 37, 223 (1981)) | 50% inhibition to binding ([1]; competition with 6,7-3H2-estradiol) [Mole equivalent] | uterotropic activity relative to estrone ([2]; 3×3 assay, 5-6 animals per dose, estrone as standard) | response compared to estrone (uterotropic) ([2]; 4×4 assay, 9-10 animals per dose, estrone as standard) [%] | uterotopic response of estrone ([2]; summary statement, relative to estrone) | estrophilic activity (estrogen receptors) | uterotopic activity [3]
1 | (17β)-17-(1,2-dicarbadodecaboran(12)-1-yl)estra-1,3,5(10)-triene-3,17-diol 17-acetate [III] | about two | 1 | about 80% | 63 | at least 63% |  | 
2 | estradiol-17β 3-carboranylmethyl ether |  |  |  |  |  | very low | very low
